Patent publication US12103946B2, “Steroid compounds as Treg modulators and uses thereof” (New York University, priority 2018, dated 2024)

Biological target: T1, recombinant human RORγt ligand-binding domain (LBD) (Homo sapiens, UniProt P51449)
T1 sequence (P51449 269-508 limits assumed): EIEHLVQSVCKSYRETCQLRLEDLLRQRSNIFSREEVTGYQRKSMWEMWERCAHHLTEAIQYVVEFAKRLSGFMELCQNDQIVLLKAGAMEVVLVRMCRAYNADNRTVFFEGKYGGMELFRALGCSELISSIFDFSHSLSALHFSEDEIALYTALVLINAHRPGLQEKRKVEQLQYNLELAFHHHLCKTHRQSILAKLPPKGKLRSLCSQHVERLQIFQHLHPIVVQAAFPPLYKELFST
Test: Microscale thermophoresis assay
Settings: MST, read-out: equilibrium dissociation constant (Kd)
Experimental: We next examined if 3-oxoLCA physically interacts with the RORγt protein in vitro. A microscale thermophoresis (MST) assay was performed with recombinant human RORγt ligand-binding domain (LBD). […] Next, we examined if 3-oxoLCA modulates the transcriptional activity of RORγt. We assayed the effect of the bile acids on firefly luciferase expression directed by a fusion protein of RORγt and Gal4-DBD (DNA-binding domain) in human embryonic kidney (HEK) 293 cells^14.
Microscale Thermophoresis Assay. The binding affinity of the compounds with RORγ ligand-binding domain (LBD) was analyzed by microscale thermophoresis (MST). Purified RORγ-LBD was labeled with the Monolith NT™ Protein Labeling Kit RED (NanoTemper Technologies). Serially-diluted compounds, with concentrations of 1 mM to 20 nM, were mixed with 55 nM labeled RORγ-LBD at room temperature and loaded into Monolith™ standard-treated capillaries. Binding was measured by monitoring the thermophoresis with 20% LED power and ‘Medium’ MST power on a Monolith NT.115 instrument (Nano Temper Technologies) with the following time setting: 5s Fluo, Before; 20s MST On; and 5s Fluo, After. Kd values were fitted using the NT Analysis software (Nano Temper Technologies).

- Kd: ~1000 nM
SMILES: C[C@H](CCC(=O)O)[C@H]1CC[C@H]2[C@@H]3CC[C@@H]4CC(=O)CC[C@]4(C)[C@H]3CC[C@]12C [3-oxoLCA, 3-oxolithocholic acid]
